Laboratory results taken from ChEMBL document CHEMBL3097995, “NAD-based inhibitors with anticancer potential” (Bioorg Med Chem Lett, 2014).

Columns and labels:
K562 = assay: Antiproliferative activity against human K562 cells; type: functional, cell-based
[1] = target: Inosine-5'-monophosphate dehydrogenase 2 (Homo sapiens, UniProt P12268); assay: Inhibition of IMPDH2 (unknown origin)
HL-60 = assay: Antiproliferative activity against human HL60 cells; type: functional, cell-based
PC-3 = assay: Antiproliferative activity against human PC3 cells; type: functional, cell-based
[2] = target: Inosine-5'-monophosphate dehydrogenase 1 (Homo sapiens, UniProt P20839); assay: Inhibition of IMPDH1 (unknown origin)
DU-145 = assay: Antiproliferative activity against human DU145 cells; type: functional, cell-based
HeLa = assay: Antiproliferative activity against human HeLa cells; type: functional, cell-based
HT-29 = assay: Antiproliferative activity against human HT-29 cells; type: functional, cell-based
Plasma = assay: Metabolic stability in human plasma; type: ADME, cell-free
Homo sapiens = species on record: Homo sapiens; assay: Selectivity ratio of Ki for IMPDH1 (unknown origin) to Ki for IMPDH2 (unknown origin)

Chain of Inosine-5'-monophosphate dehydrogenase 1 (P20839 whole entry): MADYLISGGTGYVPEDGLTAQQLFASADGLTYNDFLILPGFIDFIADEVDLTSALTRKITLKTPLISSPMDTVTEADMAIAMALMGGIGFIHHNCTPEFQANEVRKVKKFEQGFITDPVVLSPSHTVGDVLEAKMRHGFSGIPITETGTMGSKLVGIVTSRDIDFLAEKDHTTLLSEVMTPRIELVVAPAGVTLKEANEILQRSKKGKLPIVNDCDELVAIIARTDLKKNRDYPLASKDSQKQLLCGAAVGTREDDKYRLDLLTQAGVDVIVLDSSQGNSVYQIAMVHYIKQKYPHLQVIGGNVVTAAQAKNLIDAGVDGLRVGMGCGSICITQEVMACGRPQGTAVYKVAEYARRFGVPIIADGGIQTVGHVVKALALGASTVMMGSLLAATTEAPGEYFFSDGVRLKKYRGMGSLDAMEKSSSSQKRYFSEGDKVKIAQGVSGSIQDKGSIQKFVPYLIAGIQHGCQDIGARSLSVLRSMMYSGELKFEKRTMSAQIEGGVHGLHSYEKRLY

Row | Structure (SMILES) | IC50 (K562) [µM] | Ki [1] [µM] | IC50 (HL-60) [µM] | IC50 (PC-3) [µM] | Ki [2] [µM] | IC50 (DU-145) [µM] | IC50 (HeLa) [µM] | IC50 (HT-29) [µM] | Stability (Plasma) | Ratio Ki (Homo sapiens)
1 | COc1c(C)c2c(c(O)c1C/C=C(\C)CCC(=O)N[C@H](Cc1ccccc1)C(=O)O)C(=O)OC2 | > 100 | 2.67 | > 100 | > 100 | 4.31 | 10 | – | – | – | –
2 | COC(=O)[C@@H](Cc1c[nH]c2ccccc12)NC(=O)CC/C(C)=C/Cc1c(O)c2c(c(C)c1OC)COC2=O | 14 | 0.438 | 35 | > 100 | 0.144 | > 100 | – | – | – | –
3 | COC(=O)[C@@H](NC(=O)CC/C(C)=C/Cc1c(O)c2c(c(C)c1OC)COC2=O)C(C)C | 8.3 | 0.967 | 31 | > 100 | 3.77 | 39 | – | – | – | –
4 | COc1c(C)c2c(c(O)c1CCOP(=O)(O)CP(=O)(O)OC[C@H]1O[C@@H](n3cnc4c([N+](=O)[O-])cccc43)[C@H](O)[C@@H]1O)C(=O)OC2 | > 100 | 0.749 | – | – | 0.876 | – | > 100 | > 100 | – | –
5 | COC(=O)[C@H](Cc1c[nH]c2ccccc12)NC(=O)CC/C(C)=C/Cc1c(O)c2c(c(C)c1OC)COC2=O | 6.2 | 0.233 | 8.3 | > 100 | 0.733 | 9.7 | – | – | – | –
6 | COC(=O)[C@H](Cc1ccc(O)cc1)NC(=O)CC/C(C)=C/Cc1c(O)c2c(c(C)c1OC)COC2=O | 6.8 | 0.364 | 4.7 | 11 | 1.83 | 6.3 | – | – | – | –
7 | COC(=O)[C@H](NC(=O)CC/C(C)=C/Cc1c(O)c2c(c(C)c1OC)COC2=O)C(C)C | 29 | 1.96 | 36 | 61 | 7.72 | 16 | – | – | – | –
8 | COc1c(C)c2c(c(O)c1C/C=C(\C)CCC(=O)N[C@@H](Cc1c[nH]c3ccccc13)C(=O)O)C(=O)OC2 | > 100 | 0.235 | > 100 | > 100 | 0.056 | > 100 | – | – | – | –
9 | COc1c(C)c2c(c(O)c1C/C=C(\C)CCC(=O)N1CCC[C@H]1C(=O)O)C(=O)OC2 | – | 0.524 | – | – | 0.906 | – | – | – | – | –
10 | COc1c(C)c2c(c(O)c1C/C=C(\C)CCC(=O)NCC(=O)O)C(=O)OC2 | 10 | 0.321 | > 100 | > 100 | 0.892 | > 100 | – | – | – | –
11 | COC(=O)[C@@H](Cc1ccccc1)NC(=O)CC/C(C)=C/Cc1c(O)c2c(c(C)c1OC)COC2=O | 29 | 2.4 | 41 | 70 | 5.56 | 10 | – | – | – | –
12 | COC(=O)[C@H](Cc1ccccc1)NC(=O)CC/C(C)=C/Cc1c(O)c2c(c(C)c1OC)COC2=O | 50 | 0.437 | 35 | > 100 | 4.36 | > 100 | – | – | – | –
13 | COC(=O)CNC(=O)CC/C(C)=C/Cc1c(O)c2c(c(C)c1OC)COC2=O | 16 | 0.487 | 22 | 79 | 0.522 | 3.1 | – | – | – | –
14 | COc1c(C)c2c(c(O)c1C/C=C(\C)CCC(=O)N[C@@H](C(=O)O)C(C)C)C(=O)OC2 | > 100 | 1.23 | > 100 | > 100 | 2.03 | > 100 | – | – | – | –
15 | COc1c(C)c2c(c(O)c1C/C=C(\C)CCC(=O)OCCN1CCOCC1)C(=O)OC2 [MYCOPHENOLATE MOFETIL] | – | – | – | – | – | – | – | – | Unstable | –
16 | COc1c(C)c2c(c(O)c1C/C=C(\C)CCC(=O)N[C@@H](CO)C(=O)O)C(=O)OC2 | > 100 | 2.79 | > 100 | > 100 | 2.81 | > 100 | – | – | – | –

Further compounds by falling Ki [1], results first:

Row | IC50 (K562) [µM] | Ki [1] [µM] | IC50 (HL-60) [µM] | IC50 (PC-3) [µM] | Ki [2] [µM] | IC50 (DU-145) [µM] | IC50 (HeLa) [µM] | IC50 (HT-29) [µM] | Stability (Plasma) | Ratio Ki (Homo sapiens) | Structure (SMILES)
17 | 1.6 | 0.231 | 2.1 | – | 2.55 | 1.5 | – | – | Unstable | – | COc1c(C)c2c(c(O)c1C/C=C(\C)CCC(=O)OC[C@@H]1O[C@H](n3cnc4c(N)ncnc43)[C@@H](O)[C@H]1O)C(=O)OC2
18 | > 100 | 0.215 | > 100 | > 100 | 1.68 | > 100 | – | – | – | – | COc1c(C)c2c(c(O)c1C/C=C(\C)CCC(=O)N[C@@H](Cc1ccc(O)cc1)C(=O)O)C(=O)OC2
19 | > 100 | 0.188 | > 100 | > 100 | 0.259 | > 100 | – | – | – | – | COc1c(C)c2c(c(O)c1C/C=C(\C)CCC(=O)N[C@@H](Cc1ccccc1)C(=O)NC[C@H]1O[C@@H](n3cnc4c(N)ncnc43)[C@H](O)[C@@H]1O)C(=O)OC2
20 | > 100 | 0.188 | > 100 | > 100 | 0.259 | > 100 | – | – | – | – | COc1c(C)c2c(c(O)c1C/C=C(\C)CCC(=O)NCC(=O)NC[C@H]1O[C@@H](n3cnc4c(N)ncnc43)[C@H](O)[C@@H]1O)C(=O)OC2
21 | > 100 | 0.188 | > 100 | > 100 | 0.164 | > 100 | – | – | – | – | COc1c(C)c2c(c(O)c1C/C=C(\C)CCC(=O)N[C@@H](Cc1c[nH]c3ccccc13)C(=O)NC[C@H]1O[C@@H](n3cnc4c(N)ncnc43)[C@H](O)[C@@H]1O)C(=O)OC2
22 | 48 | 0.186 | – | – | 0.039 | – | > 100 | > 100 | – | – | COc1c(C)c2c(c(O)c1CCOP(=O)(O)CP(=O)(O)OC[C@H]1O[C@@H](n3c(Br)nc4c(N)ncnc43)[C@H](O)[C@@H]1O)C(=O)OC2
23 | 55 | 0.175 | 72 | > 100 | 0.132 | > 100 | – | – | – | – | COc1c(C)c2c(c(O)c1C/C=C(\C)CCC(=O)N[C@H](C(=O)O)C(C)C)C(=O)OC2
24 | > 100 | 0.174 | > 100 | > 100 | 0.032 | > 100 | – | – | – | – | COc1c(C)c2c(c(O)c1C/C=C(\C)CCC(=O)N[C@H](Cc1c[nH]c3ccccc13)C(=O)O)C(=O)OC2
25 | 2.5 | 0.165 | – | – | 0.491 | – | 25 | > 100 | – | 3 | COc1c(C)c2c(c(O)c1CCOP(=O)(O)CP(=O)(O)OC[C@H]1O[C@@H](n3cnc4c(N)cccc43)[C@H](O)[C@@H]1O)C(=O)OC2
26 | > 100 | 0.163 | > 100 | > 100 | 0.854 | > 100 | – | – | – | – | COc1c(C)c2c(c(O)c1C/C=C(\C)CCC(=O)N[C@@H](Cc1ccccc1)C(=O)O)C(=O)OC2
27 | 3 | 0.147 | 4.5 | – | 2.2 | 8.7 | – | – | – | – | COC(=O)[C@H](CCSC)NC(=O)CC/C(C)=C/Cc1c(O)c2c(c(C)c1OC)COC2=O
28 | > 100 | 0.134 | > 100 | > 100 | 5.13 | > 100 | – | – | – | – | COc1c(C)c2c(c(O)c1C/C=C(\C)CCC(=O)N[C@@H](CCSC)C(=O)O)C(=O)OC2
29 | 4.2 | 0.094 | 18 | > 100 | 1.02 | 13 | – | – | – | – | COC(=O)[C@H](CO)NC(=O)CC/C(C)=C/Cc1c(O)c2c(c(C)c1OC)COC2=O
30 | > 100 | 0.088 | > 100 | > 100 | 0.003 | > 100 | – | – | – | – | COc1c(C)c2c(c(O)c1C/C=C(\C)CCC(=O)N[C@@H](C(=O)NC[C@H]1O[C@@H](n3cnc4c(N)ncnc43)[C@H](O)[C@@H]1O)C(C)C)C(=O)OC2
31 | 49 | 0.084 | > 100 | > 100 | 0.265 | > 100 | – | – | – | – | COc1c(C)c2c(c(O)c1C/C=C(\C)CCC(=O)NC[C@H]1O[C@@H](n3cnc4c(N)ncnc43)[C@H](O)[C@@H]1O)C(=O)OC2
32 | > 100 | 0.07 | > 100 | > 100 | 0.019 | > 100 | – | – | – | – | COc1c(C)c2c(c(O)c1C/C=C(\C)CCC(=O)N[C@H](C(=O)NC[C@H]1O[C@@H](n3cnc4c(N)ncnc43)[C@H](O)[C@@H]1O)C(C)C)C(=O)OC2
33 | 1.5 | 0.056 | – | – | 0.082 | – | 12 | 46 | – | – | COc1c(C)c2c(c(O)c1CCOP(=O)(O)CP(=O)(O)OC[C@H]1O[C@@H](n3cnc4c(N)nc(-c5cccs5)nc43)[C@H](O)[C@@H]1O)C(=O)OC2
34 | 3 | 0.044 | – | – | 0.07 | – | 11 | > 100 | – | – | COc1c(C)c2c(c(O)c1CCOP(=O)(O)CP(=O)(O)OC[C@H]1O[C@@H](n3cnc4c(N)nc(COCc5ccccc5)nc43)[C@H](O)[C@@H]1O)C(=O)OC2
35 | > 100 | 0.04 | > 100 | > 100 | 0.056 | > 100 | – | – | – | – | COc1c(C)c2c(c(O)c1C/C=C(\C)CCC(=O)N[C@H](Cc1c[nH]c3ccccc13)C(=O)NC[C@H]1O[C@@H](n3cnc4c(N)ncnc43)[C@H](O)[C@@H]1O)C(=O)OC2
36 | 0.8 | 0.037 | – | – | 0.063 | – | 3 | 9.8 | – | – | COc1c(C)c2c(c(O)c1CCOP(=O)(O)CP(=O)(O)OC[C@H]1O[C@@H](n3cnc4c(N)nc(-c5ccco5)nc43)[C@H](O)[C@@H]1O)C(=O)OC2
37 | 1 | 0.015 | – | – | 0.013 | – | 4.5 | 8.7 | – | – | COc1c(C)c2c(c(O)c1CCOP(=O)(O)CP(=O)(O)OC[C@H]1O[C@@H](n3cnc4c(N)nc(C(F)(F)F)nc43)[C@H](O)[C@@H]1O)C(=O)OC2
38 | > 100 | 0.0126 | > 100 | > 100 | 0.038 | > 100 | – | – | – | – | COc1c(C)c2c(c(O)c1C/C=C(\C)CCC(=O)N[C@H](Cc1ccccc1)C(=O)NC[C@H]1O[C@@H](n3cnc4c(N)ncnc43)[C@H](O)[C@@H]1O)C(=O)OC2
